Measurements taken from PubChem BioAssay AID1963435 (Molecular Pharmacology Branch, DTP, NCI, 2024).
Values belong to the compound of their own block, whether it stands above or below them.

System: PANC-1 complex spheroid growth, percent test/control
Assay: Anticancer human tumor PANC-1 cell line growth inhibition [Asc];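 further: spheroids exposed to agents for 7 days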;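 on viability, T/C: percent viability relative to DMSO vehicle wells taken as 100%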
Conditions: for IC50: curve of first compound; for viability, T/C: stronger effect = lower value
Method in brief: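 Spheroid model: tumor line + HUVEC + hMSC. Single agents and combinations; top conc. at/near clinical Cmax (10 microM if undetermined), half-log dilutions. DMSO stocks at 800-fold test concentration.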

[1] = second compound 0.00949 µM, first compound 0.00316 µM
[2] = second compound 0.00949 µM, first compound 0.01 µM
[3] = second compound 0.00949 µM, first compound 0.0316 µM
[4] = second compound 0.00949 µM, first compound 0.1 µM
[5] = second compound 0.03 µM, first compound 0.00316 µM
[6] = second compound 0.03 µM, first compound 0.01 µM
[7] = second compound 0.03 µM, first compound 0.0316 µM
[8] = second compound 0.03 µM, first compound 0.1 µM
[9] = second compound 0.0949 µM, first compound 0.00316 µM
[10] = second compound 0.0949 µM, first compound 0.01 µM
[11] = second compound 0.0949 µM, first compound 0.0316 µM
[12] = second compound 0.0949 µM, first compound 0.1 µM
[13] = second compound 0.3 µM, first compound 0.00316 µM
[14] = second compound 0.3 µM, first compound 0.01 µM
[15] = second compound 0.3 µM, first compound 0.0316 µM
[16] = second compound 0.3 µM, first compound 0.1 µM
[17] = second compound 0.949 µM, first compound 0.00316 µM
[18] = second compound 0.949 µM, first compound 0.01 µM
[19] = second compound 0.949 µM, first compound 0.0316 µM
[20] = second compound 0.949 µM, first compound 0.1 µM
[21] = second compound 3 µM, first compound 0.00316 µM
[22] = second compound 3 µM, first compound 0.01 µM
[23] = second compound 3 µM, first compound 0.0316 µM
[24] = second compound 3 µM, first compound 0.1 µM

- IC50 (second compound 0.00949 µM): 315 nM
- IC50 (second compound 0.03 µM): 423 nM
- IC50 (second compound 0.0949 µM): 267 nM
- IC50 (second compound 0.3 µM): 306 nM
- IC50 (second compound 0.949 µM): 279 nM
- IC50 (second compound 3 µM): 284 nM
SMILES: COc1c(OCCCN2CCOCC2)ccc2c3n(c(=NC(=O)c4cnc(N)nc4)nc12)CCN3 + CCN1C(C(=O)NC23CCC(C(=O)O)(CC2)CC3)C(c2cccc(Cl)c2F)C2(C(=O)Nc3cc(Cl)ccc32)C12CCCCC2
- viability, T/C [1]: 87.6%
- viability, T/C [2]: 96.3%
- viability, T/C [3]: 101%
- viability, T/C [4]: 85.2%
- viability, T/C (second compound 0.00949 µM, first compound 0.316 µM): 50.2%
- viability, T/C (second compound 0.00949 µM, first compound 1 µM): 30.3%
- viability, T/C [5]: 91.7%
- viability, T/C [6]: 91.1%
- viability, T/C [7]: 97.2%
- viability, T/C [8]: 76.7%
- viability, T/C (second compound 0.03 µM, first compound 0.316 µM): 56%
- viability, T/C (second compound 0.03 µM, first compound 1 µM): 35.8%
- viability, T/C [9]: 94.9%
- viability, T/C [10]: 101%
- viability, T/C [11]: 92.5%
- viability, T/C [12]: 70.5%
- viability, T/C (second compound 0.0949 µM, first compound 0.316 µM): 47.9%
- viability, T/C (second compound 0.0949 µM, first compound 1 µM): 31.2%
- viability, T/C [13]: 110%
- viability, T/C [14]: 106%
- viability, T/C [15]: 95.2%
- viability, T/C [16]: 77.1%
- viability, T/C (second compound 0.3 µM, first compound 0.316 µM): 47.5%
- viability, T/C (second compound 0.3 µM, first compound 1 µM): 35.8%
- viability, T/C [17]: 108%
- viability, T/C [18]: 96.7%
- viability, T/C [19]: 95.6%
- viability, T/C [20]: 75.3%
- viability, T/C (second compound 0.949 µM, first compound 0.316 µM): 45.9%
- viability, T/C (second compound 0.949 µM, first compound 1 µM): 34.5%
- viability, T/C [21]: 118%
- viability, T/C [22]: 109%
- viability, T/C [23]: 92%
- viability, T/C [24]: 79.3%
- viability, T/C (second compound 3 µM, first compound 0.316 µM): 42.2%
- viability, T/C (second compound 3 µM, first compound 1 µM): 32.5%

- IC50 (second compound 0.00949 µM): > 300 nM
- IC50 (second compound 0.03 µM): > 300 nM
- IC50 (second compound 0.0949 µM): > 300 nM
- IC50 (second compound 0.3 µM): > 300 nM
- IC50 (second compound 0.949 µM): > 300 nM
- IC50 (second compound 3 µM): > 300 nM
SMILES: NC(=O)C(=Cn1cnc(-c2cc(C(F)(F)F)cc(C(F)(F)F)c2)n1)c1cncnc1 + CCN1C(C(=O)NC23CCC(C(=O)O)(CC2)CC3)C(c2cccc(Cl)c2F)C2(C(=O)Nc3cc(Cl)ccc32)C12CCCCC2
- viability, T/C (second compound 0.00949 µM, first compound 0.000949 µM): 101%
- viability, T/C (second compound 0.00949 µM, first compound 0.003 µM): 90.1%
- viability, T/C (second compound 0.00949 µM, first compound 0.00949 µM): 90%
- viability, T/C (second compound 0.00949 µM, first compound 0.03 µM): 104%
- viability, T/C (second compound 0.00949 µM, first compound 0.0949 µM): 114%
- viability, T/C (second compound 0.00949 µM, first compound 0.3 µM): 92.2%
- viability, T/C (second compound 0.03 µM, first compound 0.000949 µM): 95.6%
- viability, T/C (second compound 0.03 µM, first compound 0.003 µM): 95.5%
- viability, T/C (second compound 0.03 µM, first compound 0.00949 µM): 98.6%
- viability, T/C (second compound 0.03 µM, first compound 0.03 µM): 91.3%
- viability, T/C (second compound 0.03 µM, first compound 0.0949 µM): 115%
- viability, T/C (second compound 0.03 µM, first compound 0.3 µM): 104%
- viability, T/C (second compound 0.0949 µM, first compound 0.000949 µM): 89.6%
- viability, T/C (second compound 0.0949 µM, first compound 0.003 µM): 101%
- viability, T/C (second compound 0.0949 µM, first compound 0.00949 µM): 90.1%
- viability, T/C (second compound 0.0949 µM, first compound 0.03 µM): 92.4%
- viability, T/C (second compound 0.0949 µM, first compound 0.0949 µM): 117%
- viability, T/C (second compound 0.0949 µM, first compound 0.3 µM): 99.5%
- viability, T/C (second compound 0.3 µM, first compound 0.000949 µM): 100%
- viability, T/C (second compound 0.3 µM, first compound 0.003 µM): 89.6%
- viability, T/C (second compound 0.3 µM, first compound 0.00949 µM): 89.1%
- viability, T/C (second compound 0.3 µM, first compound 0.03 µM): 103%
- viability, T/C (second compound 0.3 µM, first compound 0.0949 µM): 117%
- viability, T/C (second compound 0.3 µM, first compound 0.3 µM): 93.8%
- viability, T/C (second compound 0.949 µM, first compound 0.000949 µM): 97.5%
- viability, T/C (second compound 0.949 µM, first compound 0.003 µM): 100%
- viability, T/C (second compound 0.949 µM, first compound 0.00949 µM): 105%
- viability, T/C (second compound 0.949 µM, first compound 0.03 µM): 99.3%
- viability, T/C (second compound 0.949 µM, first compound 0.0949 µM): 125%
- viability, T/C (second compound 0.949 µM, first compound 0.3 µM): 97.7%
- viability, T/C (second compound 3 µM, first compound 0.000949 µM): 120%
- viability, T/C (second compound 3 µM, first compound 0.003 µM): 107%
- viability, T/C (second compound 3 µM, first compound 0.00949 µM): 113%
- viability, T/C (second compound 3 µM, first compound 0.03 µM): 112%
- viability, T/C (second compound 3 µM, first compound 0.0949 µM): 121%
- viability, T/C (second compound 3 µM, first compound 0.3 µM): 96.6%

- IC50 (second compound 0.00949 µM): > 100 nM
- IC50 (second compound 0.03 µM): > 100 nM
- IC50 (second compound 0.0949 µM): > 100 nM
- IC50 (second compound 0.3 µM): > 100 nM
- IC50 (second compound 0.949 µM): > 100 nM
- IC50 (second compound 3 µM): > 100 nM
SMILES: NC1CCC(NC2CC2c2ccccc2)CC1 (stereo unspecified) + CCN1C(C(=O)NC23CCC(C(=O)O)(CC2)CC3)C(c2cccc(Cl)c2F)C2(C(=O)Nc3cc(Cl)ccc32)C12CCCCC2
- viability, T/C (second compound 0.00949 µM, first compound 0.000316 µM): 97.6%
- viability, T/C (second compound 0.00949 µM, first compound 0.001 µM): 89%
- viability, T/C [1]: 97.2%
- viability, T/C [2]: 85.9%
- viability, T/C [3]: 82%
- viability, T/C [4]: 104%
- viability, T/C (second compound 0.03 µM, first compound 0.000316 µM): 84.6%
- viability, T/C (second compound 0.03 µM, first compound 0.001 µM): 90.1%
- viability, T/C [5]: 103%
- viability, T/C [6]: 87%
- viability, T/C [7]: 91.2%
- viability, T/C [8]: 90.1%
- viability, T/C (second compound 0.0949 µM, first compound 0.000316 µM): 99.7%
- viability, T/C (second compound 0.0949 µM, first compound 0.001 µM): 94.7%
- viability, T/C [9]: 93.5%
- viability, T/C [10]: 95.5%
- viability, T/C [11]: 97.7%
- viability, T/C [12]: 95.4%
- viability, T/C (second compound 0.3 µM, first compound 0.000316 µM): 96.7%
- viability, T/C (second compound 0.3 µM, first compound 0.001 µM): 101%
- viability, T/C [13]: 102%
- viability, T/C [14]: 98.2%
- viability, T/C [15]: 102%
- viability, T/C [16]: 91%
- viability, T/C (second compound 0.949 µM, first compound 0.000316 µM): 109%
- viability, T/C (second compound 0.949 µM, first compound 0.001 µM): 115%
- viability, T/C [17]: 104%
- viability, T/C [18]: 107%
- viability, T/C [19]: 97.2%
- viability, T/C [20]: 89.2%
- viability, T/C (second compound 3 µM, first compound 0.000316 µM): 109%
- viability, T/C (second compound 3 µM, first compound 0.001 µM): 112%
- viability, T/C [21]: 101%
- viability, T/C [22]: 110%
- viability, T/C [23]: 95.6%
- viability, T/C [24]: 110%
